The values below come from US5023364A, “Phenoxyalkylcarboxylic acid derivatives and process for their preparation” (Kyorin Pharmaceutical Co., Ltd., priority 1987, dated 1991).

SMILES strings stand for the structures.

The assay concerns leukotriene D4 -induced bronchoconstriction. In words: Inhibition of bronchoconstriction in guinea pigs (leukotriene D4-induced, modified Konzett-Rossler method). The class given is in vivo, Male Hartley guinea pig. Particulars: p.o., 2 hours before leukotriene D4 challenge (3 μg/kg, i.v.). The protocol: Inhibition of bronchoconstriction in guinea pigs
Male Hartley guinea pig weighing about 450 g was anesthetized with sodium pentobarbital (30 mg/kg,i.p.), and the changes in transpulmonary pressure was measured by modifying the method of Konzett-Rossler (J. Harvey, et al., J. Pharmacol. Method. 9, 147-155, 1983) under an artificial ventilation. Bronchoconstrictor response was induced by bolus injection of leukotriene D4 (3 μg/kg,i.v.) from jugular vein. Animal was treated with indomethacin (10 mg/kg,i.v.) and propranolol (1 mg/kg,i.v.) before leukotriene D4 challenge. Test compounds suspended in 5% Gum Arabic solution were administered orally 2 hours before leukotriene D4 challenge.

Take `CCCc1c(OCCCOc2ccc(C(C)=O)c(OCCCC(=O)O)c2CCC)ccc(C(C)=O)c1O` [Example 5, 4-[6-Acetyl-3-[3-(4-acetyl-3-hydroxy-2-propylphenoxy)propoxy]-2-propylphenoxy]butanoic acid]: the “Inhibition (%)” value reads like this: (1.5 mg/kg) 27.4%; (6.25 mg/kg) 41.7%; (12.5 mg/kg) 59.0%; (50 mg/kg) 82.7%.

On to `CCCc1c(OCCCCCOc2c(C(C)=O)ccc(OCC(=O)O)c2CCC)ccc(C(C)=O)c1O` [Ref. 2, [4Acetyl-3-[5-(4-acetyl-3-hydroxy-2-propylphenoxy)-pentyloxy]-2-propylpheoxy]acetic acid, reference compound], for which the “Inhibition (%)” value (50 mg/kg) is recorded as 16.9%.

With `CCCc1c(OCCCOc2ccc(C(C)=O)c(OCCCCC(=O)O)c2CCC)ccc(C(C)=O)c1O` [Example 7, 5-[6-acetyl-3-[3(4-acetyl-3-hydroxy-2-propylphenoxy)propoxy]-2-propylphenoxy]pentanoic acid], the “Inhibition (%)” value is, setting by setting: (12.5 mg/kg) 45.2%; (50 mg/kg) 94.8%.

For `CCCc1c(OCCOc2ccc(C(C)=O)c(OCCCC(=O)O)c2CCC)ccc(C(C)=O)c1O` [Example 6, 4-[6-acetyl-3-[2-(4-acetyl-3-hydroxy-2-propylphenoxy)-ethoxy]-2-propylphenoxy]butanoic acid], the “Inhibition (%)” value was determined as 28.6% (12.5 mg/kg) and 86.6% (50 mg/kg).

As for `CCCc1c(OCCCOc2ccc(C(C)=O)c(OCC(=O)O)c2CCC)ccc(C(C)=O)c1O` [Ref. 1, [6-acetyl-3-[3-(4-acetyl3-hydroxy-2-propylphenoxy)propoxy]-2-propylphenoxy]acetic acid, reference compound], the “Inhibition (%)” value is, setting by setting: (12.5 mg/kg) -12.1%; (50 mg/kg) 56.1%.

Turning to `CCCc1c(OCCCCOc2ccc(C(C)=O)c(OCCCC(=O)O)c2CCC)ccc(C(C)=O)c1O` [Example 8, 4-[6-acetyl-3-[4-(4-acetyl-3-hydroxy-2-propylphenoxy)butoxy]-2-propylphenoxy]butanoic acid], the “Inhibition (%)” value (50 mg/kg) was 83.1%.
